Data on two compounds can be found in patent US6375979B2 (Somerset Pharmaceuticals, Inc., priority 1995, dated 2002).

Where two headings read alike, the source gives them in different places.

Assay [1] addresses T1, MAO-B (Cavia porcellus, UniProt P58028).
T1 construct: by human platelets and/or guinea pig hippocampal homogenates; from tissue; host or cells: guinea pig hippocampus homogenate
T1 sequence (P58028 1-520): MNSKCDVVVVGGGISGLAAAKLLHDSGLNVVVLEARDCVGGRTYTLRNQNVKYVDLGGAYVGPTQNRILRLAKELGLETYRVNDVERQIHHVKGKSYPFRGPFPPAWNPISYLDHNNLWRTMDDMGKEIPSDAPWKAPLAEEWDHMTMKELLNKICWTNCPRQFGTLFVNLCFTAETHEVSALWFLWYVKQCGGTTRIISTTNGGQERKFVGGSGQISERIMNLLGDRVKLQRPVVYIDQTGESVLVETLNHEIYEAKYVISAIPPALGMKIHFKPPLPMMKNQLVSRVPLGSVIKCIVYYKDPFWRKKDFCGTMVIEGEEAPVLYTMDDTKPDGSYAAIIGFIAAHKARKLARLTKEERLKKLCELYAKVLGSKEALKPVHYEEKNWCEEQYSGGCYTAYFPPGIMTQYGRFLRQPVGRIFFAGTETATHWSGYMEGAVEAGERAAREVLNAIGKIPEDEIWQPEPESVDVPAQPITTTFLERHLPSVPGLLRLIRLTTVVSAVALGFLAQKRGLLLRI
Nature of the assay: In vivo brain MAO-B inhibition in guinea pig hippocampus after 5 days of administration. On the procedure: FIG. 20: In Vivo MAO-B Inhibition in Guinea Pig Hippocampus. […] Animals were then sacrificed and the MAO-B activity in the hippocampus portion of the brain was determined. […] The plots were used to estimate the ID50 dosage for each agent.
Each enantiomer of DMS was administered in vivo by subcutaneous injection once a day for five consecutive days, and inhibition of brain MAO-B activity was then determined.

Assay [2] concerns the target T2, MAO-A (Cavia porcellus, UniProt H0UVA2).
T2 sequence (H0UVA2 1-461): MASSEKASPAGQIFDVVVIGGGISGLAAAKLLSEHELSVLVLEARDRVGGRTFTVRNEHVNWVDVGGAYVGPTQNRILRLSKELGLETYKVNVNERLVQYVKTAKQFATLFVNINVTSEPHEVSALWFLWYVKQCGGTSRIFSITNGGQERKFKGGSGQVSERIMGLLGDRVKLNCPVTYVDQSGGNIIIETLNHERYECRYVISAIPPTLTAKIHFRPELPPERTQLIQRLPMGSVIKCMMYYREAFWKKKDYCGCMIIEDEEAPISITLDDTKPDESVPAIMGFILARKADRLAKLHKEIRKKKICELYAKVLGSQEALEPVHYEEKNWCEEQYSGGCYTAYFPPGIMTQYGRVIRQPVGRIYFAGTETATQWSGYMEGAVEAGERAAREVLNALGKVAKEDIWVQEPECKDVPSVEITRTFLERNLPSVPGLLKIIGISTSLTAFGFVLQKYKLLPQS
Nature of the assay: In vivo MAO-A inhibition in guinea pig cortex (hippocampus) after 5 s.c. treatments. To be noted: 10 mg/kg, highest dose tested.

In assay [3] the target is T2, MAO-A. Nature of the assay: MAO-A inhibition in guinea pig hippocampal homogenates in vitro. As to conditions: for reduction in potency compared to selegiline (value in parentheses): MAO-A IC50, guinea pig hippocampal cortex. It is filed as biochemical. Further details: by human platelets and/or guinea pig hippocampal homogenates; from tissue; host or cells: guinea pig hippocampus homogenate. The source says: Human platelet MAO is comprised exclusively of the type-B isoform of the enzyme. […] The present study also examined the two enantiomers of DMS for inhibitory activity with respect to the MAO-A and MAO-B in guinea pig hippocampal tissue. Guinea pig brain tissue is an excellent animal model for studying brain dopamine metabolism, the enzyme kinetics of the multiple forms of MAO and the inhibitory properties of novel agents that interact with these enzymes. The multiple forms of MAO in this animal species show similar kinetic properties to those found in human brain tissue. Finally, the test agents were administered to guinea pigs and the extent to which they might act as inhibitors of brain MAO in vivo was assessed.
In vitro: The test system utilized the in vitro conversion of specific substrates of MAO-A (^14C-serotonin) and MAO-B (^14C-phenylethylamine) by human platelets and/or guinea pig hippocampal homogenates. […] A percent inhibition was calculated from these values.

The subject of assay [4] is cultured embryonic mesencephalic cells. Description: Neuronal survival: [3H]dopamine uptake by cultured mesencephalic cells. It is filed as cell-based, rat. The text has this:
The amount of uptake by the cultured brain cells corresponds to axonal growth.

Assay [5] relates to TH positive cells in cultured E-14 embryonic mesencephalic cells.
Assay [6] has as its target T3, MAO-A (Rattus norvegicus, UniProt P21396).
T3 sequence (P21396 1-526): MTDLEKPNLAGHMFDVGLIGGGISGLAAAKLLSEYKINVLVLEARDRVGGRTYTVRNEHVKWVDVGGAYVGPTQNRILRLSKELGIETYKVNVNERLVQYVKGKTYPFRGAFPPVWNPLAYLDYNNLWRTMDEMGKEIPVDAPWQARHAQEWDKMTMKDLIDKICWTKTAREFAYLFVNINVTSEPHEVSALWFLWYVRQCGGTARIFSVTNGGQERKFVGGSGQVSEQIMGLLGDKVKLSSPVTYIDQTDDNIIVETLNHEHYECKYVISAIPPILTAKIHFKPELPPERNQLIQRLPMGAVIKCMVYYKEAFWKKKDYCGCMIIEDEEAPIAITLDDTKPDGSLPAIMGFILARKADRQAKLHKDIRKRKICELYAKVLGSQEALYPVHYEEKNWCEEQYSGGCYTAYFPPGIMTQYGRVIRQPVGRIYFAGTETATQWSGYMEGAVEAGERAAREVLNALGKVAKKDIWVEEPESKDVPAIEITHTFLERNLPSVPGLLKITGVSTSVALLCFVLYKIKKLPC

The term IC50 denotes the concentration needed to halve the response being measured. Usually inhibition stands for how much of the control response was suppressed. With `C#CCN[C@@H](C)Cc1ccccc1` (single isomer, unassigned) [S(+)DMS, ent-desmethylselegiline], the “times less potent than selegiline, preliminary studies” value in assay [1] (brain MAO-B in vivo) is listed as “about 10 times”. For the same compound, the “times less potent than selegiline as an inhibitor of MAO-B, more recent studies” value in assay [1] (brain MAO-B in vivo, larger group of animals) is recorded as “about 50 times”. The ED50 in assay [1] (guinea pig, sc, read-out: ID50 for MAO-B in Guinea Pig Hippocampal Cortex, once a day for 5 days, subcutaneous, larger group of animals, FIG. 20) is approximately 0.5 mg/kg. Also, the “inhibition of MAO-A activity in vivo” value in assay [2] is “did not cause any observable inhibition”. For the same compound, in assay [3], half-maximal inhibition (IC50) required 100 µM and the “reduction in potency compared to selegiline (value in parentheses)” value is 40. Moreover, the inhibition at 1 µM in assay [3] (1 μM, guinea pig hippocampus, read-out: MAO-A % Inhibition x = SEM) was determined as 3.3 ± 1.5%. The inhibition at 3 µM in assay [3] (3 μM, guinea pig hippocampus, read-out: MAO-A % Inhibition x = SEM) was found to be 4.3 ± 1%. For the same compound, the inhibition at 10 µM in assay [3] (10 μM, guinea pig hippocampus, read-out: MAO-A % Inhibition x = SEM) was found to be 10.5 ± 1.47%. Further, the inhibition at 100 µM in assay [3] (100 μM, guinea pig hippocampus, read-out: MAO-A % Inhibition x = SEM) worked out at 48.4 ± 1.8%. Moreover, the inhibition at 1000 µM in assay [3] (1 mM, guinea pig hippocampus, read-out: MAO-A % Inhibition x = SEM) was found to be 92.7 ± 2.5%. The inhibition at 10000 µM in assay [3] (10 mM, guinea pig hippocampus, read-out: MAO-A % Inhibition x = SEM) turned out to be 99.6 ± 0.35%.
As to desmethylselegiline [R(−)DMS], the “3H-Dopamine Uptake, % Cont” value is recorded as 200.4% in assay [4] (0.5 μM), 291.5% in assay [4] (5 μM) and 474.3% in assay [4] (50 μM). The figures for the “3H-Dopamine Uptake, Mean” value in assay [4] (0.5 μM), in assay [4] (5 μM) and in assay [4] (50 μM) were 24020 ± 800, 34936 ± 2119 and 56826 ± 2656, respectively. For the same compound, the “Survival of TH positive cells, % cont.” value in assay [5] (0.5 μM) amounted to 226.62%; in assay [5] (5 μM) it was 329.76%; in assay [5] (50 μM) it was 360.76%. Besides, the “Survival of TH positive cells, Mean cells/cm^2” value in assay [5] (0.5 μM) is listed as 246.00 ± 22.76 cells/cm^2; in assay [5] (5 μM) it was 357.95 ± 25.76 cells/cm^2; in assay [5] (50 μM), 391.60 ± 34.93 cells/cm^2. Moreover, the “MAO-A % Inhibition x = SEM” value was determined as 4.8 ± 2.1% in assay [3] (300 nM, guinea pig hippocampus); 4.2 ± 1.5% in assay [3] (1 μM, guinea pig hippocampus); 10.5 ± 2.0% in assay [3] (3 μM, guinea pig hippocampus); 19.0 ± 1.3% in assay [3] (10 μM, guinea pig hippocampus); 64.2 ± 1.5% in assay [3] (100 μM, guinea pig hippocampus); 96.5 ± 1.2% in assay [3] (1 mM, guinea pig hippocampus). In assay [3], the “reduction in potency compared to selegiline (value in parentheses)” value was found to be 20. Also, the IC50 in assay [3] (read-out: IC50 for MAO-A in Guinea Pig Hippocampal Cortex) worked out at 50 µM. For the same compound, the inhibition came to 0% in assay [6] (0.3 µM); 0.7% in assay [6] (1 μM); 4.1% in assay [6] (3 µM); 11.8% in assay [6] (10 μM); 56.1% in assay [6] (100 μM).
